Reference: ChEMBL document CHEMBL1201862, “PubChem BioAssay data set” (2004)
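These data come from cells grown in 96-well plates and exposed to compound for 48 hours at five concentrations. GI50: concentration for 50% inhibition of growth.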 Calls of active or inactive are those of the source. No stated cut-off is given here; in the data, active = GI50 up to about 1.1 µM and inactive = higher.

How the values were obtained:
Experiment in all cases: inhibition of tumour cell growth, NCI panel, 48 h
SR = system: SR
NCI-H226 = system: NCI-H226
SK-MEL-28 = system: SK-MEL-28
HCC 2998 = system: HCC 2998
LXFL 529 = system: LXFL 529
OVCAR-8 = system: OVCAR-8
UACC-257 = system: UACC-257
NCI-H460 = system: NCI-H460
HOP-92 = system: HOP-92
SK-MEL-2 = system: SK-MEL-2
A549 = system: A549
SN12C = system: SN12C
CCRF-CEM = system: CCRF-CEM
DMS-273 = system: DMS-273
Malme-3M = system: Malme-3M
DLD-1 = system: DLD-1
A498 = system: A498
HCT-15 = system: HCT-15
SK-MEL-5 = system: SK-MEL-5
HOP-62 = system: HOP-62
M19-MEL = system: M19-MEL
RPMI-8226 = system: RPMI-8226
SK-OV-3 = system: SK-OV-3
SF-268 = system: SF-268
XF498 = system: XF498
COLO 205 = system: COLO 205
M14 = system: M14
SNB-19 = system: SNB-19
OVCAR-5 = system: OVCAR-5
SNB-78 = system: SNB-78
HL-60 = system: HL-60
IGROV-1 = system: IGROV-1
UO-31 = system: UO-31
SNB-75 = system: SNB-75
KM-20L2 = system: KM-20L2
NCI-H23 = system: NCI-H23
NCI-H522 = system: NCI-H522
ACHN = system: ACHN
MOLT-4 = system: MOLT-4
U-251 = system: U-251
786-0 = system: 786-0
LOX IMVI = system: LOX IMVI
HCT-116 = system: HCT-116
HT-29 = system: HT-29
SW-620 = system: SW-620
CAKI-1 = system: CAKI-1
TK-10 = system: TK-10
KM12 = system: KM12
SF-295 = system: SF-295
OVCAR-3 = system: OVCAR-3
SF-539 = system: SF-539
OVCAR-4 = system: OVCAR-4

Cc1c(C(=O)CSc2nc3ccccc3[nH]2)c(=O)n(-c2ccccc2)n1C
GI50 (SR): > 100 µM (inactive) | GI50 (NCI-H226): > 100 µM (inactive) | GI50 (SK-MEL-28): > 100 µM (inactive) | GI50 (HCC 2998): > 100 µM (inactive) | GI50 (LXFL 529): > 100 µM (inactive) | GI50 (OVCAR-8): > 100 µM (inactive) | GI50 (UACC-257): > 100 µM (inactive) | GI50 (NCI-H460): > 100 µM (inactive) | GI50 (HOP-92): > 100 µM (inactive) | GI50 (SK-MEL-2): > 100 µM (inactive) | GI50 (A549): > 100 µM (inactive) | GI50 (SN12C): > 100 µM (inactive) | GI50 (CCRF-CEM): > 100 µM (inactive) | GI50 (DMS-273): > 100 µM (inactive) | GI50 (Malme-3M): 34.9 µM (inactive) | GI50 (DLD-1): > 100 µM (inactive) | GI50 (A498): > 100 µM (inactive) | GI50 (HCT-15): > 100 µM | GI50 (SK-MEL-5): > 100 µM (inactive) | GI50 (HOP-62): > 100 µM (inactive) | GI50 (M19-MEL): > 100 µM (inactive) | GI50 (RPMI-8226): > 100 µM (inactive) | GI50 (SK-OV-3): > 100 µM (inactive) | GI50 (SF-268): > 100 µM (inactive) | GI50 (XF498): > 100 µM (inactive) | GI50 (COLO 205): > 100 µM (inactive) | GI50 (M14): > 100 µM (inactive) | GI50 (SNB-19): > 100 µM (inactive) | GI50 (OVCAR-5): > 100 µM (inactive) | GI50 (SNB-78): > 100 µM (inactive) | GI50 (HL-60): > 100 µM (inactive) | GI50 (IGROV-1): > 100 µM (inactive) | GI50 (UO-31): > 100 µM (inactive) | GI50 (SNB-75): > 100 µM (inactive) | GI50 (KM-20L2): > 100 µM (inactive) | GI50 (NCI-H23): > 100 µM (inactive) | GI50 (NCI-H522): > 100 µM (inactive) | GI50 (ACHN): > 100 µM (inactive) | GI50 (MOLT-4): > 100 µM (inactive) | GI50 (U-251): > 100 µM (inactive) | GI50 (786-0): > 100 µM (inactive) | GI50 (LOX IMVI): > 100 µM (inactive) | GI50 (HCT-116): > 100 µM (inactive) | GI50 (HT-29): > 100 µM (inactive) | GI50 (SW-620): > 100 µM (inactive) | GI50 (CAKI-1): > 100 µM (inactive) | GI50 (TK-10): > 100 µM (inactive) | GI50 (KM12): > 100 µM (inactive) | GI50 (SF-295): > 100 µM (inactive) | GI50 (OVCAR-3): 41.1 µM (inactive) | GI50 (SF-539): > 100 µM (inactive) | GI50 (OVCAR-4): > 100 µM (inactive)
